Patent US9034403B2, “Yeast extract containing γ-Glu-X or γ-Glu-X-Gly and a method for producing the same” (AJINOMOTO CO., INC., priority 2010, dated 2015)
Peptide text beside a SMILES is read from it.

Legend:
[1] = test system: Saccharomyces cerevisiae S288C strain; experiment: Addition of Val-Gly to the S288C strain in SDP medium, γ-Glu-Val-Gly in dry cells; format: cell-based; conditions: Val-Gly 100 ppm added to SDP medium in advance, culture 24 hours
Experimental: One loop of the S288C strain was inoculated into SDP medium (ammonium sulfate used for the preparation of the SD medium was replaced with proline, final concentration of proline was 0.1 g/L, 50 ml in a 500 ml-volume Sakaguchi flask), and cultured at 30° C. for 24 hours with shaking at a velocity of 120 rpm. Absorbance of the resulting culture broth was measured, the culture broth was inoculated into SDP medium (400 ml in a 2 L-volume conical flask with baffle fins, two or more flasks) so that OD660 was 0.01 at the start of the culture, and culture was performed at 30° C. for 24 hours with shaking by rotation at a velocity of 120 rpm. To the SDP medium, Val-Gly (purchased from Bachem) was added in advance to a final concentration of 100 ppm. Using the culture broth, the amount of γ-Glu-Val-Gly in dry cells was calculated in the same manner as that of Example 2.

[2] = test system: S288C, S288C PADH1-HGT1, S288C PADH1-PTR2; experiment: γ-Glu-Val-Gly producing ability from Val-Gly of Hgt1p or Ptr2p overproducing strains; format: cell-based, Saccharomyces cerevisiae; conditions: 100 ppm Val-Gly in SD medium, 20 hours
Experimental: S288C PADH1-HGT1, Hgt1p overproducing strain obtained in Example 12, S288C PADH1-PTR2, Ptr2p overproducing strain obtained in Example 12, and their parental strain S288C were evaluated for their γ-Glu-Val-Gly producing abilities from Val-Gly. Each strain was cultivated in 50-ml tubes containing 10 ml of SD medium with 100 ppm Val-Gly as a final concentration. Tubes were inoculated by overnight culture of corresponding strain at initial OD600=0.01, and placed in rotation shaker at 240 rpm, 30° C. Cultivation time was for 20 hours. Then, cells from 2 ml of broth culture were harvested by centrifugation, and washed with 1 ml of milliQ water three times. Then, washed cells were suspended in 1 ml of milliQ and incubated at 70° C. for 10 min with a water bath to extract intracellular materials. After cell debris and the extract were separated by centrifugation, the aqueous phase was transferred to a clean vial and then the vial was vacuum-dried. Thus, the dried extract was prepared. Then γ-Glu-Val-Gly in the dried extract was measured with LC-MS/MS analysis as described in Example 12.

Structure (SMILES): CC(C)[C@H](N)C(=O)NCC(=O)O [Val-Gly] (H-Val-Gly-OH)
- γ-Glu-Val-Gly in dry cells [1]: 2 ppm
- γ-Glu-Val-Gly in the dried extract ([2]; strain S288C PADH1-HGT1): 0.03 μg 1^−1 OD600^−1
- γ-Glu-Val-Gly in the dried extract ([2]; strain S288C PADH1-PTR2): 8.89 μg 1^−1 OD600^−1
- γ-Glu-Val-Gly in the dried extract ([2]; strain S288C): 0.04 μg 1^−1 OD600^−1
